Experimental data: ChEMBL document CHEMBL3991601, “The target landscape of clinical kinase drugs” (Science, 2017)
Calls of active or inactive are those of the source. For most assays here, no stated cut-off is given here; in the data, actives have a measured Kd and inactives only a lower limit.

Experiments:
[1] = target: T1, Delta(24)-sterol reductase (Homo sapiens, UniProt Q15392)
T1 sequence (Q15392 whole entry): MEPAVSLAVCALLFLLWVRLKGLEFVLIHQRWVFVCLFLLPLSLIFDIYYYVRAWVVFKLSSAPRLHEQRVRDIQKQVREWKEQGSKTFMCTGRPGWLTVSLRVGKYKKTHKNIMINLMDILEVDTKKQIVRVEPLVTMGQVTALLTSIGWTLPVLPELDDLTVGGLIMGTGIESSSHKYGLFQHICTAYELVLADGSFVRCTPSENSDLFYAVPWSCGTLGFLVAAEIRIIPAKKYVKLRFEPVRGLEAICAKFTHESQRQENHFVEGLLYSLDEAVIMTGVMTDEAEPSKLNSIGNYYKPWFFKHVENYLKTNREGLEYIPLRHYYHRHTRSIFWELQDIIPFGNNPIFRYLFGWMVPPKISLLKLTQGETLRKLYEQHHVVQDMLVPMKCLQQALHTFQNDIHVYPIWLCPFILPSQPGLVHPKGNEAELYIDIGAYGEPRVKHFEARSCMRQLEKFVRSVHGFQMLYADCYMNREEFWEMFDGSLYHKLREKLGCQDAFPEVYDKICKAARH

[2] = target: T2, Interleukin-1 receptor-associated kinase 4 (Homo sapiens, UniProt Q9NWZ3)
T2 sequence (Q9NWZ3 whole entry): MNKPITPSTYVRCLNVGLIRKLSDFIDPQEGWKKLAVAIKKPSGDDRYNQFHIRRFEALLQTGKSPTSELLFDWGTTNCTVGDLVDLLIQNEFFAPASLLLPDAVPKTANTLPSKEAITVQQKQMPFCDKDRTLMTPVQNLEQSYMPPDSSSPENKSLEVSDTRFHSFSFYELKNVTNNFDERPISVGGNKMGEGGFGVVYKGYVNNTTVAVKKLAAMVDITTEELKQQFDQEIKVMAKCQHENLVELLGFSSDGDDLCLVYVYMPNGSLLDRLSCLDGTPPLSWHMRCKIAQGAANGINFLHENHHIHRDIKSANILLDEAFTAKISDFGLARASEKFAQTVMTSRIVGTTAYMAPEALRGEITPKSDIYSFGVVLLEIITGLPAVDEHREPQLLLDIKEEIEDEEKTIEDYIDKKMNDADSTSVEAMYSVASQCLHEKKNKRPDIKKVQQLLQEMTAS

[3] = target: Mitogen-activated protein kinase 10 (Homo sapiens, UniProt P53779)
[4] = target: Macrophage-stimulating protein receptor (Homo sapiens, UniProt Q04912)
[5] = target: T3, Serine/threonine-protein kinase PLK4 (Homo sapiens, UniProt O00444)
T3 sequence (O00444 whole entry): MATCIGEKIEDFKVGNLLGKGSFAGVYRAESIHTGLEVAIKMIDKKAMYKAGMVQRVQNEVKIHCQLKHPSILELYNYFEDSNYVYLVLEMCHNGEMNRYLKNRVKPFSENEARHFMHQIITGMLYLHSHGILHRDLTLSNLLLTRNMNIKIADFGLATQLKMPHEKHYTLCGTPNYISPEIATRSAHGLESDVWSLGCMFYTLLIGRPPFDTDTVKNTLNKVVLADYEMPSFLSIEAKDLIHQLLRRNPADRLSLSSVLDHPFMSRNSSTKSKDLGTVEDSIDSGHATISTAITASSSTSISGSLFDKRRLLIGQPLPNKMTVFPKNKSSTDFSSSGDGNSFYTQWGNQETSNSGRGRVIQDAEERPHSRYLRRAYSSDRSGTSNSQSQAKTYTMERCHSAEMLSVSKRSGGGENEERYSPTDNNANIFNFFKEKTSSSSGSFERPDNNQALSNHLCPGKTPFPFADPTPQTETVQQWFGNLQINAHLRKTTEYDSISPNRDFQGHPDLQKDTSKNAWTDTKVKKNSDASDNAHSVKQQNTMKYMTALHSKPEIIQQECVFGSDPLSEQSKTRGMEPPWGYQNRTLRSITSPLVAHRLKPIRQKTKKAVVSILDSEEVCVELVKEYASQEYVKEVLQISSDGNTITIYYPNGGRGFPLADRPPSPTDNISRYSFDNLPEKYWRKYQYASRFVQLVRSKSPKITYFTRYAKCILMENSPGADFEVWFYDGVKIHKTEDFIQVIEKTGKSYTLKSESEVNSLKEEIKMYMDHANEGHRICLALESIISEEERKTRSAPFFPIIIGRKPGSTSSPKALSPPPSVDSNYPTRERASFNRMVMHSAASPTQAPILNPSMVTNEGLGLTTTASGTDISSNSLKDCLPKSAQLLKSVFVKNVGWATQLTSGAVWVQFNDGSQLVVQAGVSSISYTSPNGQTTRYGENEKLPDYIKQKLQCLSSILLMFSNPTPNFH

[6] = target: Non-receptor tyrosine-protein kinase TYK2 (Homo sapiens, UniProt P29597)
[7] = target: T4, Serine/threonine-protein kinase ULK3 (Homo sapiens, UniProt Q6PHR2)
T4 sequence (Q6PHR2 whole entry): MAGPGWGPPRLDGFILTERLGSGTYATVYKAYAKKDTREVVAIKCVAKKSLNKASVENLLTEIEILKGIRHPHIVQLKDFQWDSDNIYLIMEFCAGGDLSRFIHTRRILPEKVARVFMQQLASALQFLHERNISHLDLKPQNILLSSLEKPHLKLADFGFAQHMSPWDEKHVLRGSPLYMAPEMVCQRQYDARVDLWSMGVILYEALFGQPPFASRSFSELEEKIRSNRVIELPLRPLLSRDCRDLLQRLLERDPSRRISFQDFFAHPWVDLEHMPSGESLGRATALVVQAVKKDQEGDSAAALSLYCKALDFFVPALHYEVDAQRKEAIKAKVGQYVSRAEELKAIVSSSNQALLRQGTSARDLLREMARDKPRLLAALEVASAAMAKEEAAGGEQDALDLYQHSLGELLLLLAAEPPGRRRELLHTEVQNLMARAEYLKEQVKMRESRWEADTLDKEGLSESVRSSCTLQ

Chain of Mitogen-activated protein kinase 10 (P53779 whole entry): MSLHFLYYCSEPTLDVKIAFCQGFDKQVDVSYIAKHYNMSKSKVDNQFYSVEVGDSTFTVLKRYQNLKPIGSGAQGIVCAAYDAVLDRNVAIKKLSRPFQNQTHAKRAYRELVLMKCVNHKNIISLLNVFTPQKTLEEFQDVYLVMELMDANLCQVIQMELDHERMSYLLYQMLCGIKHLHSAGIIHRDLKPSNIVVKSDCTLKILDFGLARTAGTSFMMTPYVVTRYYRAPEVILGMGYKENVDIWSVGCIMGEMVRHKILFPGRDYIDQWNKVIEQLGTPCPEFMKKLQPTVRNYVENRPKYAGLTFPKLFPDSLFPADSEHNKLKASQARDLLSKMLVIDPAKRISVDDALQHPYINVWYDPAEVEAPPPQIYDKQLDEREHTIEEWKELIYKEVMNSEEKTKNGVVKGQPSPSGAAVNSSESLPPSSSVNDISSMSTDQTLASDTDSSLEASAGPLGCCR
Chain of Non-receptor tyrosine-protein kinase TYK2 (P29597 whole entry): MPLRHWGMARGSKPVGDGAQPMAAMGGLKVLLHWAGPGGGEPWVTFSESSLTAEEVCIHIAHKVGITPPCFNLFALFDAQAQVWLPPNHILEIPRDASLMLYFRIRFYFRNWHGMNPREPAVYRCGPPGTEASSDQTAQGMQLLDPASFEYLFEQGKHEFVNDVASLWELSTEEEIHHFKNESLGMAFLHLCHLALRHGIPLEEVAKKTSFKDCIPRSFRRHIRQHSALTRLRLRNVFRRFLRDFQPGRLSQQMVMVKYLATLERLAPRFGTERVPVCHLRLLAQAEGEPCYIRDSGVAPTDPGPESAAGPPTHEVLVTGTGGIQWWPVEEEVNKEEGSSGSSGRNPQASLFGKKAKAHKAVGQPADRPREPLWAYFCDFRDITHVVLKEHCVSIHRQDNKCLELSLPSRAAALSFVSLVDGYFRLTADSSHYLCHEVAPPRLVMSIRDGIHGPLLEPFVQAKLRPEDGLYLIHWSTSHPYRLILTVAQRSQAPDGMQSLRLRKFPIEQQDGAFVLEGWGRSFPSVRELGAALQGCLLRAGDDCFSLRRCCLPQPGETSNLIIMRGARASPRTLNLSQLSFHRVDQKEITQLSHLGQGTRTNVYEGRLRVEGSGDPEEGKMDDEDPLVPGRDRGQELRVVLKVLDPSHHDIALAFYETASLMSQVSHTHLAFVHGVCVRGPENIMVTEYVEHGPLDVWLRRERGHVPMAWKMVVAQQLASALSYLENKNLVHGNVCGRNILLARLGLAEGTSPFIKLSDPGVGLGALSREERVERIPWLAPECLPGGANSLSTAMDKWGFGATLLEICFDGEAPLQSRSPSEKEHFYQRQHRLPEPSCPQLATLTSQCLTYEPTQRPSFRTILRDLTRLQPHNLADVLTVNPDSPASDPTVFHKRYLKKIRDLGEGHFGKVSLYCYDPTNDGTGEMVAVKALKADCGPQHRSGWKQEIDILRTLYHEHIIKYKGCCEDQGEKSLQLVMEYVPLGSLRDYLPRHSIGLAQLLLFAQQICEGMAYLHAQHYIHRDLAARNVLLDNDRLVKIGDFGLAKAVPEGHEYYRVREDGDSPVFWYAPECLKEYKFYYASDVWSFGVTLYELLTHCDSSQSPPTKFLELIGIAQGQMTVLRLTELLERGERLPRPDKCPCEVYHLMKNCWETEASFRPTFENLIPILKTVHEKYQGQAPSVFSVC
Chain of Macrophage-stimulating protein receptor (Q04912 25-304 limits assumed): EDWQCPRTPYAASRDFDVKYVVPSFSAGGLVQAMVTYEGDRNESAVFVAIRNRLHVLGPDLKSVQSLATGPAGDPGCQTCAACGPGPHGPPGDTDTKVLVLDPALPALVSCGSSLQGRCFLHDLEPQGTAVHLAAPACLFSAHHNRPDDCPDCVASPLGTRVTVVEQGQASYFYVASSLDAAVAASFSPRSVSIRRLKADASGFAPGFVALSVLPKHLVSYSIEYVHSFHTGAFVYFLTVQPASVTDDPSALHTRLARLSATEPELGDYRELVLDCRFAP
Chain of Macrophage-stimulating protein receptor (Q04912 310-1400 limits assumed): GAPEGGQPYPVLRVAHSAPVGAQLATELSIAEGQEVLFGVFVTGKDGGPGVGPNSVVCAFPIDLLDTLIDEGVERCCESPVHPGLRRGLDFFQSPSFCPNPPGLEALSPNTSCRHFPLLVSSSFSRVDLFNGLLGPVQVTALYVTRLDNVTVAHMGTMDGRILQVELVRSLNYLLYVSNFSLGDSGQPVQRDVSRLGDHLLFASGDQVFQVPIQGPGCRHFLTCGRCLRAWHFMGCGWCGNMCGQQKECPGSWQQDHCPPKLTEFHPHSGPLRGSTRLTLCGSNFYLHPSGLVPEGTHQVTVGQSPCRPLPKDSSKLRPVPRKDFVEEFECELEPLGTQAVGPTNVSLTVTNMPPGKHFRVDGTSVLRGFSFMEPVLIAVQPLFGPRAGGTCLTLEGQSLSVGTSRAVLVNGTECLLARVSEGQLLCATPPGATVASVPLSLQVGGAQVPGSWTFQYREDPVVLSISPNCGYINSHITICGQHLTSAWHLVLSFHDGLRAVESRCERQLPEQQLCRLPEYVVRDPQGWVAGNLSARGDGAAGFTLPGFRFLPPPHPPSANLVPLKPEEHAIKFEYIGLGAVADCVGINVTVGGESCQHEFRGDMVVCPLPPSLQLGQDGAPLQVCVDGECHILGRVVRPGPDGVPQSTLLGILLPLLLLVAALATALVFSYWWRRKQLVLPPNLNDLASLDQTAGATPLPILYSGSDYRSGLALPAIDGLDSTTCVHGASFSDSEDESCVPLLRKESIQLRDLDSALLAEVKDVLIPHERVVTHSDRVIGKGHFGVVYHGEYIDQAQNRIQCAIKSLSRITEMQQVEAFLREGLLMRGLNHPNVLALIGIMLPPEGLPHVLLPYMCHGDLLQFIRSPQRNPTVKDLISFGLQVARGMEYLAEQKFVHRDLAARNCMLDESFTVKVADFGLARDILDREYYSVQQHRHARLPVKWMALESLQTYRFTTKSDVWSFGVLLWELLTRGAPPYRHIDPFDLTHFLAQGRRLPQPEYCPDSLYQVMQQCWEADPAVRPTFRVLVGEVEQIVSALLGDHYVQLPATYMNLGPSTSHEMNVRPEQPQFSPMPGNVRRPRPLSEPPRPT

| SMILES | Kd [1] | Kd [2] | Kd [3] | Kd [4] | Kd [5] | Kd [6] | Kd [7] |
| --- | --- | --- | --- | --- | --- | --- | --- |
| Cc1ccc(C(=O)Nc2ccc(Oc3cc4cnn(C)c4cc3-c3cn[nH]c3)c(F)c2)c(=O)n1-c1ccc(F)cc1 [MERESTINIB] | > 30 µM (inactive) | > 30 µM (inactive) | > 30 µM (inactive) | 0.232 µM | 1.61 µM (active) | > 30 µM (inactive) | > 30 µM (inactive) |
| O=C(NOC[C@H](O)CO)c1ccc(F)c(F)c1Nc1ccc(I)cc1F [MIRDAMETINIB] | > 30 µM (inactive) | > 30 µM (inactive) | > 30 µM (inactive) | > 30 µM (inactive) | > 30 µM (inactive) | > 30 µM (inactive) | > 30 µM (inactive) |
| C[C@@H]1COC(Nc2ccc3ncnc(Nc4ccc(OCc5nccs5)c(Cl)c4)c3c2)=N1 [VARLITINIB] | > 30 µM (inactive) | > 30 µM (inactive) | > 30 µM (inactive) | > 30 µM (inactive) | > 30 µM (inactive) | > 30 µM (inactive) | > 30 µM (inactive) |
| CNC(=O)c1cccc(-c2ccc3c(N4CCOC[C@@H]4C)nc(N4CCOC[C@@H]4C)nc3n2)c1 [VISTUSERTIB] | > 30 µM (inactive) | > 30 µM (inactive) | > 30 µM (inactive) | > 30 µM (inactive) | > 30 µM (inactive) | > 30 µM (inactive) | > 30 µM (inactive) |
| COc1ccc(-c2ccc3ncc4c(c3c2)n(-c2ccc(N3CCNCC3)c(C(F)(F)F)c2)c(=O)n4C)cn1 [BGT-226 FREE BASE] | > 30 µM (inactive) | > 30 µM (inactive) | > 30 µM (inactive) | > 30 µM (inactive) | > 30 µM (inactive) | > 30 µM (inactive) | > 30 µM (inactive) |
| C=CCN(/C=C1/C(=O)O[C@H](COC)[C@@]2(C)C1=C(O)C(=O)C1=C2[C@H](OC(C)=O)C[C@]2(C)C(=O)CC[C@@H]12)CC=C [SONOLISIB] | > 30 µM (inactive) | > 30 µM (inactive) | > 30 µM (inactive) | > 30 µM (inactive) | > 30 µM (inactive) | > 30 µM (inactive) | > 30 µM (inactive) |
| C=CC(=O)Nc1cc(Nc2nccc(-c3cn(C)c4ccccc34)n2)c(OC)cc1N(C)CCN(C)C [OSIMERTINIB] | > 30 µM (inactive) | > 30 µM (inactive) | > 30 µM (inactive) | > 30 µM (inactive) | > 30 µM (inactive) | > 30 µM (inactive) | > 30 µM (inactive) |
| Cc1c(Cn2c(C)nc3c(C(=O)O)cc(N4CCOCC4)cc32)cccc1C(F)(F)F [GSK-2636771] | > 30 µM (inactive) | > 30 µM (inactive) | > 30 µM (inactive) | > 30 µM (inactive) | > 30 µM (inactive) | > 30 µM (inactive) | > 30 µM (inactive) |
| O=C(O)c1ccc2c(c1)nc(Nc1cccc(Cl)c1)c1ccncc12 [SILMITASERTIB] | > 30 µM (inactive) | > 30 µM (inactive) | > 30 µM (inactive) | > 30 µM (inactive) | > 30 µM (inactive) | 2.38 µM (active) | > 30 µM (inactive) |
| COc1cc2ncnc(Nc3ccc(F)c(Cl)c3)c2cc1NC(=O)/C=C/CN1CCCCC1 [DACOMITINIB ANHYDROUS] | > 30 µM (inactive) | > 30 µM (inactive) | > 30 µM (inactive) | > 30 µM (inactive) | > 30 µM (inactive) | > 30 µM (inactive) | > 30 µM (inactive) |
| O=C(NC[C@H](O)CO)c1ccncc1Nc1ccc(I)cc1F [PIMASERTIB] | > 30 µM (inactive) | > 30 µM (inactive) | > 30 µM (inactive) | > 30 µM (inactive) | > 30 µM (inactive) | > 30 µM (inactive) | > 30 µM (inactive) |
| C#Cc1cccc(Nc2ncnc3cc4c(cc23)OCCOCCOCCO4)c1 [ICOTINIB] | > 30 µM (inactive) | > 30 µM (inactive) | > 30 µM (inactive) | > 30 µM (inactive) | > 30 µM (inactive) | > 30 µM (inactive) | > 30 µM (inactive) |

Second part, the compound after the results:

| Kd [1] | Kd [2] | Kd [3] | Kd [4] | Kd [5] | Kd [6] | Kd [7] | SMILES |
| --- | --- | --- | --- | --- | --- | --- | --- |
| > 30 µM (inactive) | > 30 µM (inactive) | 3.24 µM (active) | > 30 µM (inactive) | > 30 µM (inactive) | > 30 µM (inactive) | > 30 µM (inactive) | c1cc(OCCN2CCCCC2)cc(-c2n[nH]c3ccc(-c4nc[nH]n4)cc23)c1 [CC-401] |
| > 30 µM (inactive) | > 30 µM (inactive) | > 30 µM (inactive) | > 30 µM (inactive) | > 30 µM (inactive) | > 30 µM (inactive) | > 30 µM (inactive) | CC(C)(O)CC(=O)NCCn1ccc2ncnc(Nc3ccc(Oc4cccc(C(F)(F)F)c4)c(Cl)c3)c21 [TAK-285] |
| > 30 µM (inactive) | > 30 µM (inactive) | > 30 µM (inactive) | > 30 µM (inactive) | > 30 µM (inactive) | > 30 µM (inactive) | > 30 µM (inactive) | O=C(Nc1ccc(OC(F)(F)F)cc1)c1sccc1NCc1ccnc2ccccc12 [OSI-930] |
| > 30 µM (inactive) | > 30 µM (inactive) | > 30 µM (inactive) | > 30 µM (inactive) | > 30 µM (inactive) | > 30 µM (inactive) | > 30 µM (inactive) | COc1ccc2c(OCc3nnc4ccc(-c5ccccc5)nn34)ccnc2c1 [AMG-208] |
